Reference: patent US9757405B2, “Compositions comprising rutin useful for the treatment of tumors resistant to chemotherapy” (PROBIOTICAL S.P.A., priority 2013, dated 2017)

Tests used:
[1] = Cell viability of non-tumor healthy fibroblasts HMF; conditions: human
Description: (§1) The activity of the association of rutin with synthetic chemotherapeutics (cyclophosphamide) and of the association of rutin with arctigenin, arctiin, berberine, berbamine, sanguinarine, chelerythrine (referred to with the term “extracts” in the tables), was studied on resistant cell lines of adenocarcinomas and carcinomas compared with chemosensitive tumor cell lines and with line cells.
(§2) In particular, chemoresistant human tumor cells MDA-MB-231 (breast adenocarcinoma), ECV-304 (bladder carcinoma), HuH-7 (hepatocellular carcinoma) and HTB-43 (squamous cell carcinoma of the pharynx), chemosensitive tumor cells MCF-7 (breast adenocarcinoma) and non-tumor healthy human mammal fibroblasts (HMF) have been used.

[2] = test system: MDA-MB-231 (breast adenocarcinoma) cells; assay: Cell viability of chemoresistant MDA-MB-231 cells; type: cell-based, human; conditions: alone or in association with cyclophosphamide
Description: as §1, §2

| Structure (SMILES) | viability at 850 ng/ml [1] [%] | viability at 1000 ng/ml [1] [%] | viability at 1300 ng/ml [1] [%] | Synergic effect in association with cyclophosphamide [2] |
| --- | --- | --- | --- | --- |
| O=P1(N(CCCl)CCCl)NCCCO1 (stereo not shown) [Cyclophosphamide, cyclophosphamide] | 54 | 48 | 42 |  |
| O=c1c(O)c(-c2ccc(O)c(O)c2)oc2cc(O)cc(O)c12 [Quercetin, quercetin] |  |  |  | absence of synergic effects |
